{"source": "the CheMixHub ionic liquid set", "experiment": "xn = mol fraction of the nth substance listed", "conditions": "for electrical conductivity: 101 kPa, x1 = 1; for viscosity: 100 kPa", "note": "± gives the uncertainty stated by the source."}
{"smiles": "CC[n+]1ccn(C)c1.O=S(=O)([N-]S(=O)(=O)C(F)(F)F)C(F)(F)F", "note": "+ [I-].[Li+]", "values": [{"measurement": "electrical conductivity", "setting": "288.15 K", "result": "0.611 ± 0.061", "unit": "S/m"}, {"measurement": "electrical conductivity", "setting": "298.15 K", "result": "0.883 ± 0.089", "unit": "S/m"}, {"measurement": "electrical conductivity", "setting": "333.15 K", "result": "2.18 ± 0.22", "unit": "S/m"}]}
{"smiles": "CCCC[n+]1ccn(C)c1.[I-]", "note": "+ [I-].[Li+] + O", "values": [{"measurement": "viscosity", "setting": "198.25 K, x1 = 0.4, x2 = 0.05", "result": "1.3e+08", "unit": "mPa·s"}, {"measurement": "viscosity", "setting": "198.65 K, x1 = 0.05, x2 = 0.05", "result": 15000, "unit": "mPa·s"}, {"measurement": "viscosity", "setting": "203.85 K, x1 = 0.05, x2 = 0.05", "result": 6900, "unit": "mPa·s"}, {"measurement": "viscosity", "setting": "203.85 K, x1 = 0.4, x2 = 0.05", "result": "1.32e+07 ± 3.2e+06", "unit": "mPa·s"}, {"measurement": "viscosity", "setting": "208.75 K, x1 = 0.05, x2 = 0.05", "result": 3700, "unit": "mPa·s"}, {"measurement": "viscosity", "setting": "209.15 K, x1 = 0.4, x2 = 0.05", "result": 2900000, "unit": "mPa·s"}, {"measurement": "viscosity", "setting": "213.95 K, x1 = 0.05, x2 = 0.05", "result": 1900, "unit": "mPa·s"}, {"measurement": "viscosity", "setting": "213.95 K, x1 = 0.4, x2 = 0.05", "result": 490000, "unit": "mPa·s"}, {"measurement": "viscosity", "setting": "218.85 K, x1 = 0.05, x2 = 0.05", "result": 1600, "unit": "mPa·s"}, {"measurement": "viscosity", "setting": "218.85 K, x1 = 0.4, x2 = 0.05", "result": 180000, "unit": "mPa·s"}, {"measurement": "viscosity", "setting": "224.05 K, x1 = 0.05, x2 = 0.05", "result": 1200, "unit": "mPa·s"}, {"measurement": "viscosity", "setting": "224.05 K, x1 = 0.4, x2 = 0.05", "result": 68000, "unit": "mPa·s"}, {"measurement": "viscosity", "setting": "228.55 K, x1 = 0.4, x2 = 0.05", "result": 29000, "unit": "mPa·s"}, {"measurement": "viscosity", "setting": "228.95 K, x1 = 0.05, x2 = 0.05", "result": 810, "unit": "mPa·s"}, {"measurement": "viscosity", "setting": "233.05 K, x1 = 0.05, x2 = 0.05", "result": 470, "unit": "mPa·s"}, {"measurement": "viscosity", "setting": "234.15 K, x1 = 0.4, x2 = 0.05", "result": 15000, "unit": "mPa·s"}, {"measurement": "viscosity", "setting": "236.45 K, x1 = 0.05, x2 = 0.05", "result": 320, "unit": "mPa·s"}, {"measurement": "viscosity", "setting": "238.25 K, x1 = 0.4, x2 = 0.05", "result": 8000, "unit": "mPa·s"}, {"measurement": "viscosity", "setting": "241.25 K, x1 = 0.05, x2 = 0.05", "result": 220, "unit": "mPa·s"}, {"measurement": "viscosity", "setting": "243.85 K, x1 = 0.4, x2 = 0.05", "result": 3700, "unit": "mPa·s"}, {"measurement": "viscosity", "setting": "246.15 K, x1 = 0.05, x2 = 0.05", "result": 150, "unit": "mPa·s"}, {"measurement": "viscosity", "setting": "248.75 K, x1 = 0.05, x2 = 0.05", "result": 11, "unit": "mPa·s"}, {"measurement": "viscosity", "setting": "249.15 K, x1 = 0.4, x2 = 0.05", "result": 2500, "unit": "mPa·s"}, {"measurement": "viscosity", "setting": "253.95 K, x1 = 0.05, x2 = 0.05", "result": 9.7, "unit": "mPa·s"}, {"measurement": "viscosity", "setting": "253.95 K, x1 = 0.4, x2 = 0.05", "result": 1600, "unit": "mPa·s"}, {"measurement": "viscosity", "setting": "259.25 K, x1 = 0.4, x2 = 0.05", "result": 1000, "unit": "mPa·s"}, {"measurement": "viscosity", "setting": "259.65 K, x1 = 0.05, x2 = 0.05", "result": 7.7, "unit": "mPa·s"}, {"measurement": "viscosity", "setting": "263.4 K, x1 = 0.05, x2 = 0.05", "result": 6.1, "unit": "mPa·s"}, {"measurement": "viscosity", "setting": "264.1 K, x1 = 0.4, x2 = 0.05", "result": 600, "unit": "mPa·s"}, {"measurement": "viscosity", "setting": "268.6 K, x1 = 0.4, x2 = 0.05", "result": 440, "unit": "mPa·s"}, {"measurement": "viscosity", "setting": "268.9 K, x1 = 0.05, x2 = 0.05", "result": 5.2, "unit": "mPa·s"}, {"measurement": "viscosity", "setting": "273 K, x1 = 0.4, x2 = 0.05", "result": 280, "unit": "mPa·s"}, {"measurement": "viscosity", "setting": "274 K, x1 = 0.05, x2 = 0.05", "result": 4.5, "unit": "mPa·s"}, {"measurement": "viscosity", "setting": "278.6 K, x1 = 0.05, x2 = 0.05", "result": 4.5, "unit": "mPa·s"}, {"measurement": "viscosity", "setting": "279.1 K, x1 = 0.4, x2 = 0.05", "result": 180, "unit": "mPa·s"}, {"measurement": "viscosity", "setting": "283.55 K, x1 = 0.05, x2 = 0.05", "result": 3.9, "unit": "mPa·s"}, {"measurement": "viscosity", "setting": "283.55 K, x1 = 0.4, x2 = 0.05", "result": 120, "unit": "mPa·s"}, {"measurement": "viscosity", "setting": "288.45 K, x1 = 0.05, x2 = 0.05", "result": 3.6, "unit": "mPa·s"}, {"measurement": "viscosity", "setting": "289.15 K, x1 = 0.4, x2 = 0.05", "result": 82, "unit": "mPa·s"}, {"measurement": "viscosity", "setting": "293.65 K, x1 = 0.05, x2 = 0.05", "result": 3.1, "unit": "mPa·s"}, {"measurement": "viscosity", "setting": "293.65 K, x1 = 0.4, x2 = 0.05", "result": 65, "unit": "mPa·s"}, {"measurement": "viscosity", "setting": "298.55 K, x1 = 0.05, x2 = 0.05", "result": 2.6, "unit": "mPa·s"}, {"measurement": "viscosity", "setting": "298.55 K, x1 = 0.4, x2 = 0.05", "result": 41, "unit": "mPa·s"}]}
{"smiles": "CC[n+]1ccn(C)c1.O=S(=O)([N-]S(=O)(=O)C(F)(F)F)C(F)(F)F", "note": "+ c1ccccc1", "values": [{"measurement": "viscosity", "setting": "298.15 K, x2 = 0.135", "result": "25.2 ± 1.3", "unit": "mPa·s"}, {"measurement": "viscosity", "setting": "298.15 K, x2 = 0.339", "result": "15.64 ± 0.84", "unit": "mPa·s"}, {"measurement": "viscosity", "setting": "318.15 K, x2 = 0.471", "result": "6.8 ± 0.4", "unit": "mPa·s"}, {"measurement": "viscosity", "setting": "328.15 K, x2 = 0", "result": "13.68 ± 0.74", "unit": "mPa·s"}, {"measurement": "viscosity", "setting": "328.15 K, x2 = 0.339", "result": "7.26 ± 0.42", "unit": "mPa·s"}]}
